Laboratory results as given in US5250562A, “Stilbene derivatives” (Hoffmann-La Roche Inc., priority 1988, dated 1993).

Test system: chemically induced mammary tumours
Assay: activity against chemically induced (oral administration of dimethylbenzanthracene) mammary tumours in rats
Type: in vivo
Conditions: for Increase or decrease in the average number of tumours per rat: control group +242; for Increase or decrease in the average tumour volume per rat in mm^3: control group +714
From the text: The biological activity of the compounds in accordance with the invention can be determined e.g. using the test procedures described in German Offenlegungsschrift 3 715 955.

C/C(=C\c1ccc(OCCN2CCOCC2)cc1)c1ccc2c(c1)C(C)(C)CCC2(C)C [4-[2-[p-[(E)-2-(5,6,7,8-tetrahydro-5,5,8,8-tetramethyl-2-naphthyl)propenyl]phenoxy]ethyl]morpholine]
Rats with tumours (50 mg/kg/day p.o.): 100 % of controls
Increase or decrease in the average number of tumours per rat (50 mg/kg/day p.o.): +91
Increase or decrease in the average tumour volume per rat in mm^3 (50 mg/kg/day p.o.): +550 mm^3
Rats with tumours (100 mg/kg/day p.o.): 50 % of controls
Increase or decrease in the average number of tumours per rat (100 mg/kg/day p.o.): -73
Increase or decrease in the average tumour volume per rat in mm^3 (100 mg/kg/day p.o.): -77 mm^3
Rats with tumours (200 mg/kg/day p.o.): 10 % of controls
Increase or decrease in the average number of tumours per rat (200 mg/kg/day p.o.): -96
Increase or decrease in the average tumour volume per rat in mm^3 (200 mg/kg/day p.o.): -99 mm^3
